Where a name gives a salt, the structure may show the parent alone. Read-outs that look alike come from different tables or passages of the source.
Key:
Format in all cases: cell-based, human
HiBiT-tagged MYB protein = experiment: HiBiT protein abundance assay, MYB (K562 HiBiT knock-in); settings: HiBiT knock-in cells, 24 hours
Procedure: (§1) Compounds described herein were used to screen for effects on quantitative protein abundance using a HiBit assay system (Promega). Quantitative protein abundance was determined by measuring the protein levels of HiBit-tagged protein targets expressed in cell culture via luminescence using the Nano-Glo HiBiT Lytic Detection System, which uses a split complementation assay format to reconstitute NanoBiT enzyme to generate a luminescent signal. A protein abundance assay was developed such that endogenous protein targets could be modified with the HiBiT peptide tag and their abundance could be assessed after compound treatment. Briefly, K562 cell lines containing a HiBiT-modification were treated with various compounds described herein (e.g., compounds of Formulas (I), or (II)). After treatment for 24 hours, the protein abundance of a specific target was determined by measuring luminescence.
(§2) • Promega Nano-Glo HiBiT Lytic Detection System (cat #N3030) • Corning 384-well TC-treated microplates (cat #3570)
(§3) Cells were maintained in IMDM with 10% FBS. Before the assay, cells were diluted with […] growth media (IMDM+1% FBS media) and were seeded in a 384-well plate at a density of 10000 cells/well (for each cell line listed in Table 6). Each compound was prepared as a 10-point 3-old serial dilution in DMSO with the top dose at a final concentration of 10 μM in the well. Unmodified K562 cells were added at the previously specified density with DMSO to serve as an assay baseline and positive control (PC) and DMSO only with the respective modified cell lines was added to the negative control (NC) columns. Final DMSO concentration was kept at or below 0.25%. Treated cell plates were placed in an incubator at 37° C. with 5% CO2 for 24 hours. After 24 hours, 25 μL of Complete HiBit Lytic reagent was added to each well at room temperature (e.g. one plate requiring 10 ml Lytic Buffer, 100 μL LgBiT Protein, 200 μL Lytic Substrate), shaken for 5 minutes at 600 RPM, then left to sit for 10 minutes for signal to stabilize before reading on a Spark Cyto plate reader (Tecan) with a 500 ms measurement time.
(§4) To determine compound effects on protein abundance of each target in Table 6, the percent response for each respective cell line was calculated at each compound concentration as follows:
(§5) For the normalized response at each concentration, a four-parameter logistical regression was fit to the data and the response was interpolated at the 50% value to determine a concentration for protein abundance at 50% (IC50) the untreated control.

HTT mRNA = experiment: Splicing RT-qPCR assay, HTT canonical (CJ) and alternative (AJ) junction mRNA; settings: Homo sapiens; for IC50: canonical junction mRNA; for AC50: alternative junction mRNA, read-out: HTT AJ (AC50, increase in AJ mRNA)
How it was run: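 Treatment of A673 or K562 cultures with compounds (eleven-point titration, highest final 10 uM, ≤0.25% DMSO) ran one day at 37 °C. Afterwards cells were lysed directly in the well, and cDNA synthesis coupled with qPCR measured CJ and AJ isoform levels against a reference transcript.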

HiBiT-tagged HTT protein = experiment: HiBiT protein abundance assay, HTT (K562 HiBiT knock-in); settings: HiBiT knock-in cells, 24 hours
Procedure: as §1, §2, §3, §4, §5

[1] = 24 h, RT-qPCR, A673 or K562 cells, 24 hours treatment, read-out: HTT CJ (IC50, decrease in CJ mRNA)
[2] = qPCR panel, read-out: HTT CJ (decrease in CJ mRNA levels, IC50)
[3] = RT-qPCR, A673 or K562 cells, 24 hours treatment

SMILES | IC50 (HiBiT-tagged MYB protein) | IC50 (HTT mRNA; [1]) | IC50 (HTT mRNA; [2]) | AC50 (HTT mRNA; [3]) | IC50 (HiBiT-tagged HTT protein)
C[C@@H]1CN(c2cnc3nc(-c4ccc5nn(C)cc5c4)cc(Cl)c3c2)C[C@H](C)N1 [Compound 320, 4-chloro-6-[(3R,5S)-3,5-dimethylpiperazin-1-yl]-2-(2-methylindazol-5-yl)-1,8-naphthyridine] | 1000 to 10000 nM | > 10000 nM | > 10000 nM | > 10000 nM | 1000 to 10000 nM
Cc1cn2nc(-c3ccc4c(Cl)c(N5C[C@H](C)N[C@@H](C)C5)cnc4n3)cc(C)c2n1 [Compound 393, 5-chloro-2-{2,8-dimethylimidazo[1,2-b]pyridazin-6-yl}-6-[(3S,5S)-3,5-dimethylpiperazin-1-yl]-1,8-naphthyridine] | < 100 nM | 100 to 1000 nM | 100 to 1000 nM | 100 to 1000 nM | 100 to 1000 nM
Cn1cc2cc(-c3ccc4cc(N5CC[C@@H](NCC6CC6)C5)cnc4n3)c(O)cc2n1 [Compound 313] | 100 to 1000 nM | 100 to 1000 nM | 100 to 1000 nM | 100 to 1000 nM | 100 to 1000 nM
CCN[C@H]1CCN(c2cnc3nc(-c4cc5cn(C)nc5cc4O)ccc3c2)C1 [Compound 311, 5-{6-[(3S)-3-(ethylamino)pyrrolidin-1-yl]-1,8-naphthyridin-2-yl}-2-methylindazol-6-ol hydrochloride] | 100 to 1000 nM | 100 to 1000 nM | 100 to 1000 nM | 1000 to 10000 nM | 100 to 1000 nM
C[C@@H]1CN(c2cnc3nc(-c4cc5cn(C)nc5cc4O)ccc3c2)C[C@H](C)N1 [Compound 343] | 100 to 1000 nM | 100 to 1000 nM | 1000 to 10000 nM | 1000 to 10000 nM | 1000 to 10000 nM
CCNC1CCN(c2cnc3nc(-c4cc5cn(C)nc5c(F)c4O)ccc3c2)C1 (stereo not shown) [Compound 106, 5-{6-[3-(ethylamino)pyrrolidin-1-yl]-1,8-naphthyridin-2-yl}-7-fluoro-2-methylindazol-6-ol] | < 100 nM | 100 to 1000 nM | 100 to 1000 nM | 100 to 1000 nM | < 100 nM
Cc1c(O)c(-c2ccc3cc(N4CC[C@@H](NCC5CC5)C4)cnc3n2)cc2cn(C)nc12 [Compound 118] | < 100 nM | < 100 nM | < 100 nM | < 100 nM | < 100 nM
Cn1cc2cc(-c3ccc4cc(N5CCC(NC(C)(C)C)C5)cnc4n3)c(O)cc2n1 (stereo not shown) [Compound 134, 5-{6-[3-(tert-butylamino)pyrrolidin-1-yl]-1,8-naphthyridin-2-yl}-2-methylindazol-6-ol hydrochloride] | 100 to 1000 nM | 100 to 1000 nM | 100 to 1000 nM | 100 to 1000 nM | 100 to 1000 nM
Cc1c(O)c(-c2cc(Cl)c3cc(N4CCNC5(CC5)C4)cnc3n2)cc2cn(C)nc12 [Compound 381] | < 100 nM | 100 to 1000 nM | 100 to 1000 nM | 100 to 1000 nM | 100 to 1000 nM
CN[C@H]1CCN(c2cnc3nc(-c4cc5cn(C)nc5c(C)c4O)ncc3c2)C1 [Compound 120] | < 100 nM | 100 to 1000 nM | 100 to 1000 nM | 100 to 1000 nM | 100 to 1000 nM
Cc1cn2cc(-c3ccc4cc(N5C[C@@H](C)N[C@@H](C)C5)cnc4n3)cc(F)c2n1 [Compound 350] | 100 to 1000 nM | > 10000 nM | > 10000 nM | > 10000 nM | 1000 to 10000 nM
Cc1cn2cc(-c3cc(Cl)c4cc(N5CCNCC5)cnc4n3)cc(F)c2n1 [Compound 153, 4-chloro-2-{8-fluoro-2-methylimidazo[1,2-a]pyridin-6-yl}-6-(piperazin-1-yl)-1,8-naphthyridine] | 100 to 1000 nM | 100 to 1000 nM | 100 to 1000 nM | 1000 to 10000 nM | 100 to 1000 nM
C[C@@H]1CN(c2cnc3nc(-c4cc(F)c5nn(C)cc5c4)cc(Cl)c3c2)CCN1 [Compound 295, 4-chloro-2-(7-fluoro-2-methylindazol-5-yl)-6-[(3R)-3-methylpiperazin-1-yl]-1,8-naphthyridine] | 100 to 1000 nM | 100 to 1000 nM | 100 to 1000 nM | 100 to 1000 nM | 100 to 1000 nM
Cn1cc2cc(-c3ccc4cc(N5CC[C@H](NCC6CC6)C5)cnc4n3)c(O)cc2n1 [Compound 314] | 100 to 1000 nM | 100 to 1000 nM | 100 to 1000 nM | 100 to 1000 nM | 100 to 1000 nM
C[C@H]1CN(c2cnc3nc(-c4cc(F)c5nn(C)cc5c4)cc(Cl)c3c2)CCN1 [Compound 296] | < 100 nM | 100 to 1000 nM | 100 to 1000 nM | 1000 to 10000 nM | 100 to 1000 nM
CNC1CCN(c2cnc3nc(-c4cc5cn(C)nc5c(C)c4O)cc(Cl)c3c2)C1 (stereo not shown) [Compound 142, 5-{4-chloro-6-[3-(methylamino)351pyrrolidine-1-yl]-1,8-naphthyridin-2-yl}-2,7-dimethylindazol-6-ol] | < 100 nM | < 100 nM | < 100 nM | 100 to 1000 nM | < 100 nM
C[C@@H]1CN(c2cnc3nc(-c4cc5cn(C)nc5c(F)c4O)cc(Cl)c3c2)C[C@@H](C)N1 [Compound 281] | < 100 nM | < 100 nM | < 100 nM | 100 to 1000 nM | < 100 nM
Cn1cc2cc(-c3ccc4cc(N5CC[C@H](NCC6CC6)C5)cnc4n3)c(O)c(F)c2n1 [Compound 136, 5-{6-[(3S)-3-[(cyclopropylmethyl)amino]326pyrrolidine-1-yl]-1,8-naphthyridin-2-yl}-7-fluoro-2-methylindazol-6-ol] | < 100 nM | 100 to 1000 nM | 100 to 1000 nM | 100 to 1000 nM | 100 to 1000 nM
CN(c1cnc2nc(-c3cc4cn(C)nc4c(F)c3O)ccc2c1)C1CCNCC1 [Compound 284] | 100 to 1000 nM | 1000 to 10000 nM | 1000 to 10000 nM | 1000 to 10000 nM | 1000 to 10000 nM
CN(C)C1CCN(c2cnc3nc(-c4cc5cn(C)nc5cc4O)ccc3c2)CC1 [Compound 316] | 100 to 1000 nM | 1000 to 10000 nM | 1000 to 10000 nM | 1000 to 10000 nM | 1000 to 10000 nM
C[C@@H]1CN(c2cnc3nc(-c4cc5cn(C)nc5c(F)c4O)cc(C4CC4)c3c2)C[C@H](C)N1 [Compound 305, 5-{4-cyclopropyl-6-[(3R,5S)-3,5-dimethylpiperazin-1-yl]-1,8-naphthyridin-2-yl}-7-fluoro-2-methylindazol-6-ol] | 100 to 1000 nM | 1000 to 10000 nM | 1000 to 10000 nM | 1000 to 10000 nM | 1000 to 10000 nM
CN1CCC[C@H]2CN(c3cnc4nc(-c5cc6cn(C)nc6c(F)c5O)cc(Cl)c4c3)C[C@H]21 [Compound 304] | 100 to 1000 nM | 1000 to 10000 nM | 1000 to 10000 nM | 1000 to 10000 nM | 1000 to 10000 nM
Cc1cc(-c2cc3cn(C)nc3c(C)c2O)nc2ncc(N3CCNCC3)cc12 [Compound 151, 2,7-dimethyl-5-[4-methyl-6-(piperazin-1-yl)-1,8-naphthyridin-2-yl]indazol-6-ol] | < 100 nM | 100 to 1000 nM | 100 to 1000 nM | 100 to 1000 nM | 100 to 1000 nM
Cc1cn2cc(-c3cc(Cl)c4cc(N5C[C@H](C)N[C@@H](C)C5)cnc4n3)cc(F)c2n1 [Compound 298] | < 100 nM | 100 to 1000 nM | 100 to 1000 nM | 100 to 1000 nM | 100 to 1000 nM
Cc1c(O)c(-c2cc(Cl)c3cc(N4CCNC(C)C4)cnc3n2)cc2cn(C)nc12 (stereo not shown) [Compound 147] | 100 to 1000 nM | 100 to 1000 nM | 100 to 1000 nM | 100 to 1000 nM | 100 to 1000 nM
CN[C@H]1CN(c2cnc3nc(-c4cc5cn(C)nc5c(C)c4O)ccc3c2)C[C@@H]1F (single isomer, unassigned) [Compound 131] | 100 to 1000 nM | 1000 to 10000 nM | 1000 to 10000 nM | 1000 to 10000 nM | 1000 to 10000 nM
